Laboratory results published in US11633370B2, “Use of scavengers of reactive gamma-ketoaldehydes to extend cell lifespan and healthspan” (Vanderbilt University, priority 2016, dated 2023).

Assays:
[1] = system: RB981 [F19F10.5(ok888) V]; experiment: Longevity assay, ets-7 gene knock-out strain; type: in vivo, C. elegans; details: 500 μM SA; 0 μM SA 16 days; p>0.05
Source text: First, to validate the microarray results, the present inventors performed real-time RT-PCR on four genes, siah-1, sma-4, F13D12.6, and ets-7 (FIG. 6B). […] Messenger RNA levels for siah-1 and sma-4 were decreased by nearly 25%, as well as F13D12.6 and ets-7 were increased by nearly 25% by SA administration (p<0.05). Pathway Analysis using Gene Ontology (GO) with WEB-based Gene SeT Analysis Toolkit (WEBGESTALT <http://bioinfo.vanderbilt.edu/webgestalt/>) highlighted the metabolic process, lipid metabolic process, proteolysis pathways among many others as being altered favorably by the administration of SA (see Supplemental Data). From the array data confirmed by RT-PCR, the present inventors identified the ETS class transcription factor ETS-7 as a protein of interest. […] In order to test this, the present inventors carried out real-time RT-PCR quantification of ets-7 in non-functional SIR-2.1 mutant nematodes treated with increasing doses of SA (FIG. 6E). […]
Survival cultures were grown on 60-mm agar plates; after the late-stage L4/young adult molt, approximately 100 adults were transferred onto SA-OP50-seeded NGM plates. […] Worms were maintained at 20° C. and live worms were counted during transfer to freshly made SA-OP50-NGM agar plates every 2-3 days. Survival was scored as movement upon slight touch with the platinum wire. […]

[2] = compared with pyridoxamine (PM); cited from earlier work
N2 WT C. elegans = experiment: Oxygen consumption rate of whole worms, N2; type: in vivo; details: whole worms over several days; p>0.05
Source text: Mitochondria lie at the center of aging biology, playing crucial roles in energy production, carbon substrate metabolism, apoptosis regulation, and redox balance and signaling. Since sirtuins play a major role in regulating mitochondrial function, the present inventors next wanted to investigate whether SA was exerting any of its effects via protection of mitochondrial processes. To investigate SA's effects on mitochondrial respiration, the present inventors administered SA to WT N2 (FIG. 5A) and non-functional SIR-2.1 mutant worms (FIG. 5B) and measured oxygen consumption rate (OCR) in whole worms over several days. […] The present inventors also examined the effect of SA treatment on mitochondrial DNA (mtDNA) integrity.
Oxygen consumption rate for whole C. elegans was measured using a Seahorse Bioscience XF^e96 Analyzer. Worms were harvested from Day 0, 2, and 15 colonies maintained on FUDR containing SA-OP50-seeded NGM plates by washing in M9 medium, followed by floatation on an ice-cold 60% w/v sucrose gradient to segregate clean bacteria-free adult worms from bacterial debris. Worms were seeded at 1,000 worms/well in M9. After 20 min equilibration, a 2-min measurement was performed to obtain basal OCR for all experimental conditions and strains.

In the case of `NCc1ccccc1O` [SA, salicylamine], the median lifespan [1] is given as 15 days, the “potency and selectivity for scavenging isoketals” value [2] is given as “similarly potent and as selective as PM” and the “mitochondrial oxygen consumption rate (OCR)” value (N2 WT C. elegans) is given as “no effect”.
